Measured values from article PMC8625466 (Viruses, 2021).
Like-named read-outs stand apart in the source and are kept apart here.

How the values were obtained:
FMDV = experiment: organism not typed; assay type: cell-based, Foot-and-mouth-disease virus serotype A (NP05)
FMDV 3C^pro = FMDV 3C^pro (Foot-and-mouth disease virus, UniProt P03306); experiment: cell-based
in vitro = details: hamster, Cytotoxicity (CC50)
[1] = BHK-21, 0 h, read-out: Viral (EC50)
[2] = BHK-21, 2 h, read-out: Post-Viral (EC50)
[3] = BHK-21, read-out: Prophylaxis (EC50)
[4] = read-out: EC50 (low antiviral activities)

Chain of FMDV 3C^pro (P03306 1650-1862 limits assumed): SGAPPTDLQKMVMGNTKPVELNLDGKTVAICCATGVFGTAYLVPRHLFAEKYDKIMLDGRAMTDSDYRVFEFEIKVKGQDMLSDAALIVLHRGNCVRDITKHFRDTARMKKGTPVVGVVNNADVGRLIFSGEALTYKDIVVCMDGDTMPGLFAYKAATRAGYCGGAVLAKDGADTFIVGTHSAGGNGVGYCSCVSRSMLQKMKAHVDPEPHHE

## COc1cc(O)c2c(=O)cc(-c3ccc(O)c(O)c3)oc2c1 [7-O-Methylluteolin]
FMDV; [1]
  EC50: 75 to 100 µM
FMDV; [2]
  EC50: 75 to 100 µM
FMDV; [3]
  EC50: > 100 µM
FMDV; [4]
  EC50: 75 to 100 µM
FMDV 3C^pro
  IC50: > 200 µM
In vitro
  CC50: > 100 µM

## O=c1cc(-c2ccc(O)cc2)oc2cc(O)cc(O)c12 [Apigenin]
FMDV; [1]
  EC50: 75 to 100 µM
FMDV; [2]
  EC50: 75 to 100 µM
FMDV; [3]
  EC50: > 100 µM
FMDV; [4]
  EC50: 75 to 100 µM
FMDV 3C^pro
  IC50: > 200 µM
In vitro
  CC50: 68.7 ± 4.1 µM

## O=C(O)[C@H]1O[C@@H](Oc2cc3oc(-c4ccccc4)cc(=O)c3c(O)c2O)[C@H](O)[C@@H](O)[C@@H]1O [Baicalin]
In vitro
  CC50: > 100 µM

## COc1ccc(-c2coc3cc(O[C@@H]4O[C@H](CO)[C@@H](O)[C@H](O)[C@H]4O)ccc3c2=O)cc1O [Calycosin 7-O-glucoside]
BHK-21 cells
  CC50: > 100 µM

## O=C/C=C/c1ccccc1 [Cinnamaldehyde]
In vitro
  CC50: > 100 µM

## COc1ccc(-c2cc(=O)c3c(O)cc(O[C@@H]4O[C@H](CO[C@@H]5O[C@@H](C)[C@H](O)[C@@H](O)[C@H]5O)[C@@H](O)[C@H](O)[C@H]4O)cc3o2)cc1O [Diosmin]
In vitro
  CC50: > 100 µM

## O=C(O[C@@H]1Cc2c(O)cc(O)cc2O[C@@H]1c1cc(O)c(O)c(O)c1)c1cc(O)c(O)c(O)c1 [EGCG]
BHK-21 cells
  CC50: > 100 µM

## COc1cc(C2Oc3cc([C@H]4Oc5cc(O)cc(O)c5C(=O)[C@@H]4O)ccc3OC2CO)ccc1O (stereo partly drawn) [Flavobin]
In vitro
  CC50: 45.1 µM

## COc1ccc([C@@H]2CC(=O)c3c(O)cc(O[C@@H]4O[C@H](CO[C@@H]5O[C@@H](C)[C@H](O)[C@@H](O)[C@H]5O)[C@@H](O)[C@H](O)[C@H]4O)cc3O2)cc1O [Hesperidin]
BHK-21 cells
  CC50: > 100 µM

## COc1ccc(-c2cc(=O)c3c(O)cc(O)c(-c4cc(-c5cc(=O)c6c(O)cc(O)cc6o5)ccc4OC)c3o2)cc1 [Isoginkgetin]
FMDV; [1]
  EC50: 2.01 ± 0.07 µM
FMDV; [2]
  EC50: 1.93 ± 0.21 µM
FMDV; [3]
  EC50: 6.76 ± 0.8 µM
FMDV 3C^pro
  Fold increase of the FLuc over Renilla luciferase (Rluc) ratio: 2.65 fold
  IC50: 39.03 ± 0.05 µM
In vitro
  CC50: > 100 µM

## O=C(COc1cc(O)c2c(=O)cc(-c3ccccc3)oc2c1)c1ccc(F)cc1 [Kaempferol derivative, 7-[2-(4-Fluorophenyl)-2-oxoethoxy]-5-hydroxy-2-phenyl-4H-chromen-4-one]
In vitro
  CC50: > 100 µM

## COc1ccc(-c2cc(=O)c3c(O)cc(O[C@@H]4O[C@H](CO[C@@H]5O[C@@H](C)[C@H](O)[C@@H](O)[C@H]5O)[C@@H](O)[C@H](O)[C@H]4O)cc3o2)cc1 [Linarin]
BHK-21 cells
  CC50: > 100 µM

## O=C(/C=C/c1ccc(O)c2c1[C@H](C(=O)O)[C@@H](c1ccc(O)c(O)c1)O2)O[C@H](Cc1ccc(O)c(O)c1)C(=O)O [Lithospermic acid]
In vitro
  CC50: > 100 µM

## O=c1cc(-c2ccc(O)c(O)c2)oc2cc(O)cc(O)c12 [Luteolin]
FMDV; [1]
  EC50: 9.73 ± 0.94 µM
FMDV; [2]
  EC50: 10 ± 0.98 µM
FMDV; [3]
  EC50: 25.8 ± 1.29 µM
FMDV 3C^pro
  Fold increase of the FLuc over Renilla luciferase (Rluc) ratio: 1.86 fold
  IC50: 176.7 ± 0.05 µM
In vitro
  CC50: > 100 µM

## O=c1cc(-c2ccccc2)oc2cc(O[C@@H]3O[C@H](CO[C@@H]4O[C@H](CO)[C@@H](O)[C@H](O)[C@H]4O)[C@@H](O)[C@H](O)[C@H]3O)c(O)c(O)c12 [Oroxin B]
BHK-21 cells
  CC50: 85.9 ± 7.4 µM

## C[C@@H]1O[C@@H](Oc2cc(O)c3c(=O)c(O)c(-c4ccc(O)c(O)c4)oc3c2)[C@H](O)[C@H](O)[C@H]1O [Quercetin 7-rhamnoside]
FMDV; read-out: Post-Viral (EC50)
  EC50: 75 to 100 µM
FMDV; read-out: Prophylaxis (EC50)
  EC50: > 100 µM
FMDV; read-out: Viral (EC50)
  EC50: > 100 µM
FMDV 3C^pro; read-out: IC50, cell-based protease assay
  IC50: > 200 µM
BHK-21 cells
  CC50: > 100 µM

## NC(=O)c1ncn([C@@H]2O[C@H](CO)[C@@H](O)[C@H]2O)n1 [Ribavirin, reference compound]
FMDV; [1]
  EC50: 41.8 ± 1.58 µM
FMDV; [2]
  EC50: 133 ± 2.03 µM
FMDV; [3]
  EC50: 283.9 ± 2.3 µM
In vitro
  CC50: > 100 µM

## CCOC(=O)/C=C/[C@H](C[C@@H]1CCNC1=O)NC(=O)[C@@H](CC(=O)[C@@H](NC(=O)c1cc(C)on1)C(C)C)Cc1ccc(F)cc1 [Rupintrivir, reference compound]
FMDV; [1]
  EC50: 1.99 ± 0.01 µM
FMDV; [2]
  EC50: 1.69 ± 0.19 µM
FMDV; [3]
  EC50: 11.8 ± 1.03 µM
FMDV 3C^pro
  Fold increase of the FLuc over Renilla luciferase (Rluc) ratio: 4.27 fold
  IC50: 13.5 ± 0.19 µM
In vitro
  CC50: > 100 µM

## O=C(/C=C/c1ccc(O)cc1)OC[C@H]1O[C@@H](Oc2c(-c3ccc(O)cc3)oc3cc(O)cc(O)c3c2=O)[C@H](O)[C@@H](O)[C@@H]1O [Tiliroside]
In vitro
  CC50: > 100 µM

## Epicatechin-3-gallate
BHK-21 cells
  CC50: 77 ± 8.85 µM

## Hyperoxide
BHK-21 cells
  CC50: > 100 µM

## Methyl Hesperidin,(S)
BHK-21 cells
  CC50: > 100 µM
